Experimental data reported in patent publication US12636379B2, “Microbubble-chemotherapeutic agent complex for sonodynamic therapy” (UNIVERSITY OF ULSTER, priority 2015, dated 2026).

Experiments:
MIA PaCa-2 cells = assay: Combined antimetabolite/sonodynamic therapy with free agents, MTT assay; conditions: 3 μM RB and/or 50 μM 5FU, 3 h; US 30 sec, 1 MHz; MTT 24 h; n=6
Experimental: The cells were incubated with either 3 μM RB and 50 μM 5FU (or both) for 3 h as these represent sub-lethal doses and enabled synergy to be identified if evident. Ultrasound exposure was 30 sec, 3 W/cm^2, 1 MHz, 50% duty cycle; pulse repetition frequency of […]. Cell viability was determined 24 h following treatment using a MTT assay.
Human primary pancreatic adenocarcinoma cell lines MIA PaCa-2 were maintained in Dulbecco's Modified Eagle's Medium and supplemented with 10% (v/v) foetal bovine serum in a humidified 5% CO2 atmosphere at 37° C. The cells were plated into the wells of a 96-well plate at a concentration of 4×10^3 cells per well and incubated for 21 h at 37° C. in a humidified 5% CO2 atmosphere. The medium was then removed and wells treated with either Rose Bengal, ([…]), 5-Fluorouracil (50 μM) or a combination of both RB (3 μM) and 5-FU (50 μM) for 3 h. The drug solutions were then removed, fresh media added and selected wells treated with ultrasound delivered using a Sonidel SP100 sonoporator (30 sec, frequency=1 MHz, ultrasound power density=3.0 Wcm^−2, duty cycle=50% with pulse repetition frequency=100 Hz). The cells were then incubated for 24 h before cell viability was determined using a MTT assay.

BxPc-3 tumours = assay: In vivo cytotoxicity: intratumoural treatment of ectopic xenograft tumours, tumour volume; set-up: species or system mice; conditions: 9 days after single intratumoural treatment; 440 μM gemcitabine or 5-FU alone; mix (90.8 μM RB, 440 μM 5FU) +US
From the text: FIG. 8 is a plot of (a) % change in tumour volume and (b) average body weight for mice treated with (i) no treatment (open diamonds) (ii) ultrasound only (filled diamonds) (iii) gemcitabine (open triangles) (iv) O2MB-RB/O2MB-5FU mix-US (open circles) (v) O2MB-RB+US (filled squares) (vi) O2MB-RB/O2MB-5FU mix+US (filled circles). Not shown for ease of illustration are treatments with 5-FU alone, O2MB-RB-US, O2MB-5FU+US, O2MB-5FU-US. The RB, 5-FU and gemcitabine concentrations were kept constant in each case at 0.184 mg/kg (90.8 μM), 0.115 mg/kg (440 μM) and 0.264 mg/kg (440 μM) respectively. Ultrasound treatment was delivered for 30 sec at frequency of 1 MHz, an ultrasound power density of 3.0 Wcm^−2 and a duty cycle of 50%, pulse frequency=100 Hz. […]
BxPc-3 cells were maintained in RPMI-1640 medium supplemented with 10% foetal calf serum as described above. […] Once the tumours had reached an average volume of 218 mm^3, calculated from the geometric mean diameter using the equation tumour volume=4πR^3/3, animals were randomly distributed into 10 groups (n=4). […] After treatment, animals were allowed to recover from anaesthesia and tumour volume and body weight were recorded daily for nine days. The % increase in tumour volume was calculated employing the pre-treatment measurements for each group.

BxPC-3 cells = assay: In vitro cytotoxicity with 780 nm irradiation; format: cell-based; conditions: exposed to 780 nm irradiation
[1] = tested on: ectopic BxPC-3 pancreatic tumors; assay: Tumour localisation after tail vein administration; format: in vivo, mice; conditions: 18 hours following tail vein administration
Mia Paca cells = assay: In vitro cytotoxicity with 780 nm irradiation; format: cell-based; conditions: exposed to 780 nm irradiation
[2] = Fluorescence emission spectra compared with Cardio Green; format: physicochemical
From the text: The new compounds clearly show similar absorption profiles to Cardio Green. […] This is attributed to increased ISC due to the additional iodine atoms.

[3] = tested on: HeLa cervical cancer cell line; assay: In vitro cytotoxicity with 780 nm excitation; format: cell-based; conditions: excited at 780 nm
[4] = Singlet oxygen production (SOSG intensity) on 780 nm excitation; format: physicochemical; conditions: excited at 780 nm
From the text: Increased SOSG intensity is indicative of singlet oxygen production.

Bcl2 = conditions: MIA PaCa-2 pancreatic cancer xenograft model; cited from earlier work
ectopic BxPC-3 tumours = assay: Systemic (IP) gemcitabine therapy of ectopic tumours, tumour volume; format: in vivo, mice; conditions: 120 mg/kg IP on days 0, 3 and 8
Experimental: FIG. 9 is a plot of % change in tumour volume for mice treated with IP gemcitabine (120 mg/kg on days 0, 3 and 8) (filled squares) or vehicle only (filled diamonds). Error bars represent+the standard error where n=4.
In order to compare the effectiveness of the combined SDT/5-FU therapy against systemic gemcitabine therapy, we treated mice bearing ectopic BxPC-3 tumours with gemcitabine (120 mg/kg) administered by intraperitoneal (IP) injection on days 0, 3 and 8. Tumour volume was measured daily as before and compared to untreated animal controls.

fluorescence emission in comparison to cardio green [2] | singlet oxygen production [4] | Structure (SMILES) | reduction in cell viability with ultrasound relative to the same treatment without ultrasound (MIA PaCa-2 cells) [%] | tumour growth over original starting volume (BxPc-3 tumours) [%] | cytotoxicity compared with cardio green (BxPC-3 cells) | cytotoxicity compared with cardio green (Mia Paca cells) | toxicity compared with Cardio Green [3] | further results
– | – | O=c1[nH]cc(F)c(=O)[nH]1 [Compound 5-FU, 5-fluorouracil] | 5.9 | 123.3 | – | – | – | –
remains similar to cardiogreen | more singlet oxygen than Cardio Green | CC1(C)C(/C=C/C2=C(Cl)C(=C/C=C3/N(CCCCS(=O)(=O)O)c4ccc(I)cc4C3(C)C)/CCC2)=[N+](CCCCS(=O)(=O)O)c2ccc(I)cc21 [Compound I2-IRCYDYE, 2-((E)-2-((E)-2-chloro-3-((E)-2-(5-iodo-3,3-dimethyl-1-(4-sulfobutyl)indolin-2-ylidene)ethylidene)cyclohex-1-en-1-yl)vinyl)-5-iodo-3,3-dimethyl-1-(4-sulfobutyl)-3H-indol-1-ium] | – | – | significantly more cytotoxic | significantly more cytotoxic | more toxic | tumour localisation [1]: localises in tumor
considerably quenched | more singlet oxygen than Cardio Green | CC1(C)C(/C=C/C2=C(Cl)C(=C/C=C3/N(CCCCS(=O)(=O)O)c4cc(I)cc(I)c4C3(C)C)/CCC2)=[N+](CCCCS(=O)(=O)O)c2cc(I)cc(I)c21 [Compound I4-IRCYDYE, 2-((E)-2-((E)-2-chloro-3-((E)-2-(4,6-diiodo-3,3-dimethyl-1-(4-sulfobutyl)indolin-2-ylidene)ethylidene)cyclohex-1-en-1-yl)vinyl)-4,6-diiodo-3,3-dimethyl-1-(4-sulfobutyl)-3H-indol-1-ium] | – | – | significantly more cytotoxic | significantly more cytotoxic | more toxic | –
– | – | CN1CCN(CCCNc2cc3c4c(c(NCCCN5CCN(C)CC5)cc5c4c2C(=O)N(CCCN2CCOCC2)C5=O)C(=O)N(CCCN2CCOCC2)C3=O)CC1 [MM41] | – | – | – | – | – | reduction of Bcl2 levels at the protein level (Bcl2): 40%
– | – | O=C1OC2(c3cc(I)c(O)c(I)c3Oc3c2cc(I)c(O)c3I)c2c(Cl)c(Cl)c(Cl)c(Cl)c21 [RB, Rose Bengal] | 11.1 | – | – | – | – | –
– | – | Nc1ccn([C@@H]2O[C@H](CO)[C@@H](O)C2(F)F)c(=O)n1 [gemcitabine] | – | 125.1 | – | – | – | tumour volume relative to starting tumour volume (ectopic BxPC-3 tumours): at no point in the therapy did the tumour volume decrease below the starting tumour volume; tumour volume increase (ectopic BxPC-3 tumours; control group about 100%): 38%; increase in tumour volume at day 6 (ectopic BxPC-3 tumours; day 6): 20%
